Experimental data from PubChem BioAssay AID2060326 (Molecular Pharmacology Branch, DTP, NCI, 2025).
“And” between values parts separate entries of the source, which are not always exact repeats. Identical values can stand only once. Each block holds one molecule with its values, some of them ahead of it.

System: MDA-MB-468 multi-cell spheroids, viability
Experiment: Anticancer human tumor MDA-MB-468 cell line growth inhibition [IpAb];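 note: spheroids exposed to agents for seven days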;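 for viability, T/C: 100% = DMSO vehicle control viability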
Conditions: for viability, T/C: stronger effect = lower value
Summary of the method: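 Multi-cell spheroids of 60% tumour cells, 25% HUVEC and 15% MSC in ultra-low-attachment U-bottom wells, treated with agents combined with ipatasertib or abemaciclib. Half-log ranges top out near clinical Cmax, or 10 microM when Cmax is unknown.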

[1] = curve of first compound, second compound 0.1 µM
[2] = curve of first compound, second compound 0.316 µM
[3] = curve of first compound, second compound 1 µM
[4] = second compound 0.1 µM, first compound 0.0316 µM
[5] = second compound 0.1 µM, first compound 0.1 µM
[6] = second compound 0.316 µM, first compound 0.0316 µM
[7] = second compound 0.316 µM, first compound 0.1 µM
[8] = second compound 1 µM, first compound 0.0316 µM
[9] = second compound 1 µM, first compound 0.1 µM
[10] = curve of first compound, second compound 0.01 µM
[11] = curve of first compound, second compound 0.0316 µM
[12] = second compound 0.01 µM, first compound 0.0316 µM
[13] = second compound 0.01 µM, first compound 0.1 µM
[14] = second compound 0.01 µM, first compound 0.316 µM
[15] = second compound 0.01 µM, first compound 1 µM
[16] = second compound 0.01 µM, first compound 3.16 µM
[17] = second compound 0.01 µM, first compound 10 µM
[18] = second compound 0.0316 µM, first compound 0.0316 µM
[19] = second compound 0.0316 µM, first compound 0.1 µM
[20] = second compound 0.0316 µM, first compound 0.316 µM
[21] = second compound 0.0316 µM, first compound 1 µM
[22] = second compound 0.0316 µM, first compound 3.16 µM
[23] = second compound 0.0316 µM, first compound 10 µM
[24] = second compound 0.1 µM, first compound 0.316 µM
[25] = second compound 0.1 µM, first compound 1 µM
[26] = second compound 0.1 µM, first compound 3.16 µM
[27] = second compound 0.1 µM, first compound 10 µM
[28] = second compound 0.316 µM, first compound 0.316 µM
[29] = second compound 0.316 µM, first compound 1 µM
[30] = second compound 0.316 µM, first compound 3.16 µM
[31] = second compound 0.316 µM, first compound 10 µM
[32] = second compound 1 µM, first compound 0.316 µM
[33] = second compound 1 µM, first compound 1 µM
[34] = second compound 1 µM, first compound 3.16 µM
[35] = second compound 1 µM, first compound 10 µM

- IC50 (curve of compound): 6020 nM and 6990 nM
SMILES: Cc1nc(NC(=O)N2CCCC2C(N)=O)sc1-c1ccnc(C(C)(C)C(F)(F)F)c1 (centres undefined)
- viability, T/C (compound 0.0316 µM): 86.9% and 91.9%
- viability, T/C (compound 0.1 µM): 93% and 82.5%
- viability, T/C (compound 0.316 µM): 79.2% and 88.1%
- viability, T/C (compound 1 µM): 64.3% and 95%
- viability, T/C (compound 3.16 µM): 84% and 94.3%
- viability, T/C (compound 10 µM): 25.2% and 31.6%

- IC50 (curve of compound): 4400 nM and 4230 nM
SMILES: Cn1nccc1Nc1nccc(-c2ccn(C(CO)c3ccc(Cl)c(F)c3)c(=O)c2)n1 (centres undefined)
- viability, T/C (compound 0.0316 µM): 84.7% and 94.8%
- viability, T/C (compound 0.1 µM): 91.9% and 98.6%
- viability, T/C (compound 0.316 µM): 100% and 83.9%
- viability, T/C (compound 1 µM): 84.2% and 81.8%
- viability, T/C (compound 3.16 µM): 68.4% and 64.4%
- viability, T/C (compound 10 µM): 5.12% and 13.2%

SMILES: Cn1ncnc1[C@H]1c2n[nH]c(=O)c3cc(F)cc(c23)N[C@@H]1c1ccc(F)cc1 + CC(C)NCC(C(=O)N1CCN(c2ncnc3c2C(C)CC3O)CC1)c1ccc(Cl)cc1
- IC50 [1]: > 100 nM
- IC50 [2]: > 100 nM
- IC50 [3]: 17.9 nM
- IC50 (curve of first compound, second compound 3.16 µM): < 0.316 nM
- IC50 (curve of first compound, second compound 10 µM): < 0.316 nM
- viability, T/C (second compound 0.1 µM, first compound 0.000316 µM): 101%
- viability, T/C (second compound 0.1 µM, first compound 0.001 µM): 102%
- viability, T/C (second compound 0.1 µM, first compound 0.00316 µM): 86.9%
- viability, T/C (second compound 0.1 µM, first compound 0.01 µM): 73.8%
- viability, T/C [4]: 85.8%
- viability, T/C [5]: 65.7%
- viability, T/C (second compound 0.316 µM, first compound 0.000316 µM): 62%
- viability, T/C (second compound 0.316 µM, first compound 0.001 µM): 70.7%
- viability, T/C (second compound 0.316 µM, first compound 0.00316 µM): 62.1%
- viability, T/C (second compound 0.316 µM, first compound 0.01 µM): 60.2%
- viability, T/C [6]: 55.5%
- viability, T/C [7]: 57.7%
- viability, T/C (second compound 1 µM, first compound 0.000316 µM): 60.8%
- viability, T/C (second compound 1 µM, first compound 0.001 µM): 59.2%
- viability, T/C (second compound 1 µM, first compound 0.00316 µM): 55.1%
- viability, T/C (second compound 1 µM, first compound 0.01 µM): 54.2%
- viability, T/C [8]: 46.2%
- viability, T/C [9]: 41.8%
- viability, T/C (second compound 3.16 µM, first compound 0.000316 µM): 38.9%
- viability, T/C (second compound 3.16 µM, first compound 0.001 µM): 37.8%
- viability, T/C (second compound 3.16 µM, first compound 0.00316 µM): 40%
- viability, T/C (second compound 3.16 µM, first compound 0.01 µM): 34.9%
- viability, T/C (second compound 3.16 µM, first compound 0.0316 µM): 34%
- viability, T/C (second compound 3.16 µM, first compound 0.1 µM): 26.6%
- viability, T/C (second compound 10 µM, first compound 0.000316 µM): 19.3%
- viability, T/C (second compound 10 µM, first compound 0.001 µM): 22.5%
- viability, T/C (second compound 10 µM, first compound 0.00316 µM): 18.6%
- viability, T/C (second compound 10 µM, first compound 0.01 µM): 18.8%
- viability, T/C (second compound 10 µM, first compound 0.0316 µM): 16%
- viability, T/C (second compound 10 µM, first compound 0.1 µM): 15.6%

SMILES: CC(=O)c1c(C)c2cnc(Nc3ccc(N4CCNCC4)cn3)nc2n(C2CCCC2)c1=O + CCN1CCN(Cc2ccc(Nc3ncc(F)c(-c4cc(F)c5nc(C)n(C(C)C)c5c4)n3)nc2)CC1
- IC50 [10]: > 300 nM
- IC50 [11]: > 300 nM
- IC50 [1]: > 300 nM
- IC50 [2]: > 300 nM
- IC50 [3]: > 300 nM
- viability, T/C (second compound 0.01 µM, first compound 0.000949 µM): 99.7%
- viability, T/C (second compound 0.01 µM, first compound 0.003 µM): 97.4%
- viability, T/C (second compound 0.01 µM, first compound 0.00949 µM): 93.6%
- viability, T/C (second compound 0.01 µM, first compound 0.03 µM): 88.4%
- viability, T/C (second compound 0.01 µM, first compound 0.0949 µM): 84%
- viability, T/C (second compound 0.01 µM, first compound 0.3 µM): 96.5%
- viability, T/C (second compound 0.0316 µM, first compound 0.000949 µM): 92.2%
- viability, T/C (second compound 0.0316 µM, first compound 0.003 µM): 99.2%
- viability, T/C (second compound 0.0316 µM, first compound 0.00949 µM): 85.5%
- viability, T/C (second compound 0.0316 µM, first compound 0.03 µM): 89.1%
- viability, T/C (second compound 0.0316 µM, first compound 0.0949 µM): 82.6%
- viability, T/C (second compound 0.0316 µM, first compound 0.3 µM): 86.6%
- viability, T/C (second compound 0.1 µM, first compound 0.000949 µM): 101%
- viability, T/C (second compound 0.1 µM, first compound 0.003 µM): 96.1%
- viability, T/C (second compound 0.1 µM, first compound 0.00949 µM): 90.8%
- viability, T/C (second compound 0.1 µM, first compound 0.03 µM): 92.8%
- viability, T/C (second compound 0.1 µM, first compound 0.0949 µM): 85.3%
- viability, T/C (second compound 0.1 µM, first compound 0.3 µM): 95.7%
- viability, T/C (second compound 0.316 µM, first compound 0.000949 µM): 106%
- viability, T/C (second compound 0.316 µM, first compound 0.003 µM): 93.9%
- viability, T/C (second compound 0.316 µM, first compound 0.00949 µM): 93.7%
- viability, T/C (second compound 0.316 µM, first compound 0.03 µM): 83.7%
- viability, T/C (second compound 0.316 µM, first compound 0.0949 µM): 88%
- viability, T/C (second compound 0.316 µM, first compound 0.3 µM): 108%
- viability, T/C (second compound 1 µM, first compound 0.000949 µM): 74.7%
- viability, T/C (second compound 1 µM, first compound 0.003 µM): 75%
- viability, T/C (second compound 1 µM, first compound 0.00949 µM): 77.5%
- viability, T/C (second compound 1 µM, first compound 0.03 µM): 71.4%
- viability, T/C (second compound 1 µM, first compound 0.0949 µM): 83.1%
- viability, T/C (second compound 1 µM, first compound 0.3 µM): 74.6%

SMILES: CCCS(=O)(=O)Nc1ccc(F)c(C(=O)c2c[nH]c3ncc(-c4ccc(Cl)cc4)cc23)c1F + CCN1CCN(Cc2ccc(Nc3ncc(F)c(-c4cc(F)c5nc(C)n(C(C)C)c5c4)n3)nc2)CC1
- IC50 [10]: > 10000 nM
- IC50 [11]: > 10000 nM
- IC50 [1]: > 10000 nM
- IC50 [2]: > 10000 nM
- IC50 [3]: 5030 nM
- viability, T/C [12]: 89.8%
- viability, T/C [13]: 88.3%
- viability, T/C [14]: 101%
- viability, T/C [15]: 124%
- viability, T/C [16]: 108%
- viability, T/C [17]: 88.7%
- viability, T/C [18]: 104%
- viability, T/C [19]: 91.1%
- viability, T/C [20]: 99.1%
- viability, T/C [21]: 113%
- viability, T/C [22]: 79.5%
- viability, T/C [23]: 57.5%
- viability, T/C [4]: 106%
- viability, T/C [5]: 114%
- viability, T/C [24]: 104%
- viability, T/C [25]: 117%
- viability, T/C [26]: 99.5%
- viability, T/C [27]: 51.4%
- viability, T/C [6]: 102%
- viability, T/C [7]: 103%
- viability, T/C [28]: 104%
- viability, T/C [29]: 98.4%
- viability, T/C [30]: 111%
- viability, T/C [31]: 64.1%
- viability, T/C [8]: 76.9%
- viability, T/C [9]: 78.4%
- viability, T/C [32]: 85.7%
- viability, T/C [33]: 74.2%
- viability, T/C [34]: 66.5%
- viability, T/C [35]: 26.2%

SMILES: C=CCn1c(=O)c2cnc(Nc3ccc(N4CCN(C)CC4)cc3)nc2n1-c1cccc(C(C)(C)O)n1 + CCN1CCN(Cc2ccc(Nc3ncc(F)c(-c4cc(F)c5nc(C)n(C(C)C)c5c4)n3)nc2)CC1
- IC50 [10]: 467 nM
- IC50 [11]: 461 nM
- IC50 [1]: 408 nM
- IC50 [2]: 560 nM
- IC50 [3]: 417 nM
- viability, T/C [12]: 108%
- viability, T/C [13]: 75.5%
- viability, T/C [14]: 72.8%
- viability, T/C [15]: 6.04%
- viability, T/C [16]: 2.55%
- viability, T/C [17]: 2.34%
- viability, T/C [18]: 96.3%
- viability, T/C [19]: 87.9%
- viability, T/C [20]: 71.3%
- viability, T/C [21]: 6.12%
- viability, T/C [22]: 2.93%
- viability, T/C [23]: 2.24%
- viability, T/C [4]: 121%
- viability, T/C [5]: 93.1%
- viability, T/C [24]: 67.3%
- viability, T/C [25]: 5.75%
- viability, T/C [26]: 3.42%
- viability, T/C [27]: 2.91%
- viability, T/C [6]: 105%
- viability, T/C [7]: 102%
- viability, T/C [28]: 89.7%
- viability, T/C [29]: 9.63%
- viability, T/C [30]: 3.67%
- viability, T/C [31]: 2.2%
- viability, T/C [8]: 72.3%
- viability, T/C [9]: 79.5%
- viability, T/C [32]: 63.5%
- viability, T/C [33]: 6.76%
- viability, T/C [34]: 2.84%
- viability, T/C [35]: 1.01%
